Data published in patent US20180346988A1, “ZNF532 FOR DIAGNOSIS AND TREATMENT OF CANCER” (THE BRIGHAM AND WOMEN'S HOSPITAL, INC., priority 2015, published 2018).

Columns and labels:
Type in all cases: cell-based, human
ZNF532 locus = test: Nascent RNA-seq of transcription at the ZNF532 locus in NMC cell lines; details: NMC cell lines 797 and 1015, in the presence of JQ1
Description: Transcription is seen in two of the NMC cell lines, 797 and 1015, and is shown to diminish in the presence of JQ1.

PVT1 RNA = test: RNA-seq at the MYC locus (PVT1 lncRNA) in 24335 cells; details: JQ1 administered for 4 h prior to RNA collection
Experimental: (FIG. 11A) Localization of ZNF532-NUT and effects on transcription at the MYC locus based on ChIP-seq and RNA-seq. JQ1 was administered for 4 h prior to RNA collection.
Morphologic differentiation is evidenced by accumulation of abundant cytoplasm, enlargement of nuclei and cytoplasm, and formation of cohesive spheres. […] It has been shown that an important function of ZNF532-NUT is to maintain expression of MYC. […] One such megadomain occupies a region proximal to MYC (FIG. 11A). […] Consistent with its role in MYC upregulation, knockdown of ZNF532-NUT leads to decreased MYC protein levels (FIG. 11B).

24335 cells = test: Differentiation and proliferation of ZNF532-NUT+ 24335 NMC cells (involucrin/keratin expression, H&E); details: BET inhibitor treatment
Experimental: FIGS. 8A-8B describe experimental data showing differentiation of ZNF532-NUT+24335 cells in response to NUT knockdown or BET inhibitor.
(FIG. 10A) Immunoblot of involucrin expression, a marker of squamous differentiation. (FIG. 10B) H&E showing differentiation as evidenced by formation of cohesive spherical clusters, and marked accumulation of cytoplasm. (FIG. 10C) 500 nM JQ1 BET inhibitor was administered. Dose-response to JQ1 measured by cell titer glo. (FIG. 10D) Effects of ZNF532 and NUT knock down on number of mitoses quantified by immunohistochemistry using anti-histone H3phospho-serine antibody.
The importance of ZNF532 in NMC was underscored by simultaneous discovery of a patient with pulmonary NMC (FIG. 5A) harboring a ZNF532-NUT fusion gene, that was identified by whole transcriptome RNAsequencing (FIG. 5B), and confirmed by cytogenetics, fluorescence in situ hybridization (FISH), RT-PCR, western blotting, and immunofluorescence (FIGS. 5C-5F, 6). The fusion gene is comprised of exon 3 of ZNF532 fused to intron 1 of NUT (FIG. 7). The resulting predicted 1500 amino acid protein includes the N-terminal 778 amino acids of ZNF532, encoding only the first two of eleven zinc fingers and a large unstructured domain, part of intron 1 of NUT, and its remaining exons 2-7 (FIGS. 8A-8B). […]

SMILES: Cc1sc2c(c1C)C(c1ccc(Cl)cc1)=N[C@@H](CC(=O)OC(C)(C)C)c1nnc(C)n1-2 [JQ1, (S)-tert-butyl 2-(4-(4-chlorophenyl)-2,3,9-trimethyl-6H-thieno[3,2-f][1,2,4]triazolo[4,3-a][1,4]diazepin-6-yl)acetate]
- transcription at the ZNF532 locus (ZNF532 locus): diminish
- expression of the PVT1 RNA (PVT1 RNA): decreased expression
- differentiation of 24335 cells (expression of involucrin, marker of terminal squamous differentiation) (24335 cells): results in differentiation
